Test results taken from patent US20240407414A1, “DIHYDROCHALCONE DERIVATIVES” (SYMRISE AG, priority 2021, published 2024).
“And” between values parts separate entries of the source, which are not always exact repeats. Equal values may be shown once. “Also recorded” adds a separate entry of the source.

Legend:
[1] = Duo test (paired comparison, trained sensory panel) of compounds against 5% sucrose solution; format: in vivo; conditions: 50 mg/kg in 5% sucrose solution; for sweet modul. activity (%): 20 panelists, perceived sweeter than without addition
Excerpt: The sensory impact of trilobatin and compound (1) have been compared by a trained sensory panel (Table 1) using a series of paired comparison tests. The samples were coded and randomized (referred to as Duo test):
Each of compound (1) and trilobatin has been compared with a 5% sucrose solution in water.

[2] = Intrinsic sweetness by Duo test against 1.5% sucrose; format: in vivo
Protocol: 200 g/l L. litseifolius leaf extract (47% trilobatin, 7% phloridizin) was dissolved in triacetin and reacted with lipase Novozyme 435 for 6 h at 80° C. After cooling the mixture, the solution was filtrated. The solution contained 4.2% compound 1. The intrinsic sweetness of the solution was determined by a Duo test comparing different concentrations of this solution with a 1.5% sucrose sample. It turned out that 0.15% of the solution (containing 63 mg/kg compound 1) was as sweet as 1.5% sucrose.
The intrinsic sweetness of pure compound (1) (>95%) was determined by a panel of 20 trained panellists. Thereby, a 1.5% sucrose solution was compared by a Duo test with 65 mg/kg of compound (1) in water. […] The intrinsic sweetness of compound (1) in a mixture of trilobatin and diacetyl trilobatins was similar than of pure compound (1).

[3] = Sensory profile of sugar solution with added compounds; format: in vivo; conditions: 80 mg/kg in 5% sucrose solution
[4] = Descriptor intensities (0-9) in orange softdrink base, panel of five flavorists; format: in vivo; conditions: for Lingering sweetness (0-9) B / Off note (0-9) B / Onset sweetness (0-9) B / Overall sweetness (0-9) B / acidity (0-9) B / fruity (0-9) B / juicy (0-9) B / mouthfeel (0-9) B / orange (0-9) B: B: + 20 mg/kg G92828 in orange softdrink base; for Lingering sweetness (0-9) B / Off note (0-9) B / Onset sweetness (0-9) B / Overall sweetness (0-9) B / acidity (0-9) B / fruity (0-9) B / juicy (0-9) B / mouthfeel (0-9) B / orange (0-9) B / Lingering sweetness (0-9) A / Off note (0-9) A / Onset sweetness (0-9) A / Overall sweetness (0-9) A / acidity (0-9) A / fruity (0-9) A / juicy (0-9) A / mouthfeel (0-9) A / orange (0-9) A: RS 200, PD 120, HT 10, PH 30 mg/kg, n=5; for Lingering sweetness (0-9) Δ / Off note (0-9) Δ / Onset sweetness (0-9) Δ / Overall sweetness (0-9) Δ / acidity (0-9) Δ / fruity (0-9) Δ / juicy (0-9) Δ / mouthfeel (0-9) Δ / orange (0-9) Δ: difference B vs A (effect of 20 mg/kg G92828); for Lingering sweetness (0-9) A / Off note (0-9) A / Onset sweetness (0-9) A / Overall sweetness (0-9) A / acidity (0-9) A / fruity (0-9) A / juicy (0-9) A / mouthfeel (0-9) A / orange (0-9) A: A: substance alone in orange softdrink base
Protocol: Different descriptors relevant for the overall liking of an orange softdrink were applied and the differences in intensities of each descriptor (Δ) of FMP (A) to FMP+ compound (1) (B) were determined by a panel of five flavorists (n=5) and given as intensities from 0-9 as shown in Tables 4-12. The panelists were asked to neutralise with tap water between each sample and the intensity of the descriptors of each sample were defined before tasting the next sample. The tasting of each RS, PD, HT or PH (A) were followed by the samples with added RS, PD, HT or PH+compound (1) (B) with each being compared to the intensities of the base.

[5] = cited from earlier work
[6] = Sweet taste / sweetness enhancing properties of 6″-O-acetylphloridzin; conditions: in vivo
Excerpt: It can therefore not be concluded that any dihydrochalcone glycoside carrying an acetyl substituent will taste sweet or be able to enhance or modulate sweetness.

[7] = soft drink base and in combination with RS, PD, HT and PH

SMILES	significance of sweet modulating activity / sensory effect [1]	sweet modul. activity (%) [1]	Aftertaste [3]	Lingering sweetness (0-9) B [4]	Off note (0-9) B [4]	Onset sweetness (0-9) B [4]	Overall sweetness (0-9) B [4]	acidity (0-9) B [4]	fruity (0-9) B [4]	juicy (0-9) B [4]	mouthfeel (0-9) B [4]	orange (0-9) B [4]	Lingering sweetness (0-9) Δ [4]	Off note (0-9) Δ [4]	Onset sweetness (0-9) Δ [4]	Overall sweetness (0-9) Δ [4]	acidity (0-9) Δ [4]	fruity (0-9) Δ [4]	juicy (0-9) Δ [4]	mouthfeel (0-9) Δ [4]	other results
CC(=O)OC[C@H]1O[C@@H](Oc2cc(O)c(C(=O)CCc3ccc(O)cc3)c(O)c2)[C@H](O)[C@@H](O)[C@@H]1O [compound (1), 6″-O-acetyltrilobatin]	significant	27.5% and 27.54%	1	0.0	0.0	4.5	6.0	3.5	5.0	4.0	4.0	5.0	0.0	0.0	0.5	1.0	−0.5	0.0	0.0	0.5	concentration of compound 1 contained in solution as sweet as 1.5% sucrose ([2]; in enzymatically acetylated L. litseifolius leaf extract solution (4.2% compound 1) dosed at 0.15%): 63 mg/kg; intrinsic sweetness in a mixture of trilobatin and diacetyl trilobatins compared with pure compound ([2]; in vivo): similar; Impact [3]: 4; Intensity [3]: 6; Mouthfeel [3]: 5; effect on perceived acidity ([4]; base, RS, HT and PH): reducing perceived acidity; effect on acidity ([4]; in combination with PD): no reduction in acidity; effect on lingering aftertaste ([4]; in combination with PD): slightly reduced; effect on overall sweetness ([4]; in combination with PH, compared to PH): no increase in overall sweetness; effect on lingering aftertaste ([4]; in combination with RS): slight increase in lingering aftertaste; effect on fruity notes ([4]; in combination with RS and PD): increasing fruity notes; effect on overall sweetness ([4]; in combination with RS, PD and HT): increased; effect on onset sweetness ([4]; in combination with RS, PD, HT and PH): increases the onset sweetness; effect on juicy character ([4]; in combination with each tested FMP): increasing the juicy character; effect on intensity of orange flavor [4, 7]: no impact; effect on off notes [4, 7]: no impact; effect on juicy notes ([4]; test base alone): no effect; effect on mouthfeel ([4]; test base and every tested FMP): improves the mouthfeel
O=C(CCc1ccc(O)cc1)c1c(O)cc(O)cc1O [PH, Phloretin]	–	–	–	0.0	0.0	6.0	6.5	3.0	5.5	5.5	5.0	5.0	0.0	0.0	1.0	0.0	−0.5	0.0	0.5	1.0	Lingering sweetness (0-9) A [4]: 0.0; Off note (0-9) A [4]: 0.0; Onset sweetness (0-9) A [4]: 5.0; Overall sweetness (0-9) A [4]: 6.5; acidity (0-9) A [4]: 3.5; fruity (0-9) A [4]: 5.5; juicy (0-9) A [4]: 5.0; mouthfeel (0-9) A [4]: 4.0; orange (0-9) A [4]: 5.0; orange (0-9) Δ [4]: 0.0
O=C(CCc1ccc(O)cc1)c1c(O)cc(O[C@@H]2O[C@H](CO)[C@@H](O)[C@H](O)[C@H]2O)cc1O [trilobatin, phloretin-4′-β-D-glucopyranoside]	did not have a significant sensory effect; also recorded: did not show a significant sensory effect	1.66%	1	–	–	–	–	–	–	–	–	–	–	–	–	–	–	–	–	–	Impact [3]: 3; Intensity [3]: 4; Mouthfeel [3]: 5; taste at 20 mg/kg ([5]; 20 mg/kg): does not taste sweet; taste at 100 mg/kg ([5]; 100 mg/kg, compared to 0.5% sucrose solution): weakly sweet; concentration above which sweetness can be detected ([5]; in vivo): above 60 mg/kg
COc1ccc([C@@H]2CC(=O)c3c(O)cc(O)cc3O2)cc1O [HT, Hesperetin]	–	–	–	0.0	0.0	6.0	7.5	3.5	5.0	5.0	4.5	5.0	0.0	0.0	1.0	1.5	−0.5	0.0	1.0	0.5	Lingering sweetness (0-9) A [4]: 0.0; Off note (0-9) A [4]: 0.0; Onset sweetness (0-9) A [4]: 5.0; Overall sweetness (0-9) A [4]: 6.0; acidity (0-9) A [4]: 4.0; fruity (0-9) A [4]: 5.0; juicy (0-9) A [4]: 4.0; mouthfeel (0-9) A [4]: 4.0; orange (0-9) A [4]: 5.0; orange (0-9) Δ [4]: 0.0
CC(=O)OC[C@H]1O[C@@H](Oc2cc(O)cc(O)c2C(=O)CCc2ccc(O)cc2)[C@H](O)[C@@H](O)[C@@H]1O [6″-O-Acetylphloridzin]	–	–	–	–	–	–	–	–	–	–	–	–	–	–	–	–	–	–	–	–	sweet taste or sweetness enhancing properties [6]: did not show any sweet taste or sweetness enhancing properties
